Where two headings read alike, the source gives them in different places.
Biological target: T1, VLA-4 (Homo sapiens, UniProt P05556+P13612)
T1 construct: host or cells: Jurkat clone E6-1
Experiment: Adhesion of Jurkat cells to immobilized VCAM-1 (domains 1-3)
Type: cell-based
Set-up: scale not given here
Settings: adhesion of CFSE-labeled Jurkat cells to recombinant human VCAM-1 (domains 1-3) coated plates, compounds as yielded by solid phase synthesis, purity about 40-90%
Procedure: In Vitro Assay: Adhesion of Jurkat Cells to Immobilized VCAM-1 (Domains 1-3).
Preparation of Fluorescence Labeled Jurkat Cells:
Jurkat cells (American Type Culture Collection, Clone E6-1, ATCC TIB-152) were cultured in RPMI 1640 medium (Nikken Bio Medical Laboratory, CM1101) supplemented with 10% fetal bovine serum (Hyclone, A-1119-L), 100 U/ml penicilin (Gibco BRL, 15140-122) and 100 μg/ml streptomycin (Gibco BRL, 15140-122) in a humidified incubator at 37° C. with 5% CO2.
Jurkat cells were incubated with phosphate balanced solution (PBS, Nissui, 05913) containing 25 μM of 5(-and-6)-carboxyfluorescein diacetate, succinimidyle ester (CFSE, Dojindo Laboratories, 345-06441) for 20 min at room temperature while gently swirling every 5 min. After centrifugation at 1000 rpm for 5 min, the cell pellet was resuspended with adhesion assay buffer at a cell density of 2×10^6 cells/ml. The adhesion assay buffer was composed of 24 mM Tris-HCl (pH 7.4), 137 mM NaCl, 27 mM KCl, 4 mM glucose, 0.1% bovine serum albumin (BSA, Sigma, A9647) and 2 mM MnCl2.
Preparation of VCAM-1 (Extracellular Domains 1-3):
Complementary DNA (cDNA) encoding 7-domain form of VCAM-1 (GenBank accession #M60335) was obtained using Rapid-Screen™ cDNA library panels (OriGene Technologies, Inc) at Takara Gene Analysis Center (Shiga, Japan). The primers used were 5′-CCAAGGCAGAGTACGCAAAC-3′ (sence) and 5′-TGGCAGGTATTATTAAGGAG-3′ (antisense). PCR amplification of the 3-domain VCAM-1 cDNA was perform using Pfu DNA polymerase (Stratagene) with the following sets of primers: (U-VCAMd1-3) 5′-CCATATGGTACCTGATCAATTTAAAATCGAGACCACCCCAGAA-3′; (L-VCAMd1-3) 5′-CCATATAGCAATCCTAGGTCCAGGGGAGATCTCAACAGTAAA-3′. PCR cycle was 94° C. for 45 sec, 55° C. for 45 sec, 72° C. for 2 min, repeating 15 cycles. After the purification of the PCR product, the fragment was digested with KpnI-AvrII. The digested fragment was ligated into pBluescript IISK(−) (Strategene), which was linealized by digesting with KpnI-XhoI. The ligation was followed by transformation to a Dam/Dcm methylase-free E. coli strain SCS110 (Strategene) to create the donor plasmid pH7. To direct VCAM-1 molecule into the insect cell secretory pathway, the VCAM-1 coding sequence was fused to signal peptide sequence of honeybee melittin. The resulting melittin-VCAM fusion was placed in correct orientation to the baculoviris polyhedrin promoter. Baculovirus transfer vector containing first 3-domain form VCAM-1 (pH10) was constructed by ligation of 0.9 kb fragment from AvrII/Klenow/BclI digests of pH7 into SalI/Klenow/BamHI digests of pMelBacB (Invitrogen). Recombinant baculovirus was generated by using Bac-N-Blue™ Transfection kit (Invitrogen) according to the manufacture's instruction. The recombinant virus was amplified by infection to High-Five™ insect cells for 5-6 days, and virus titer was determined by plaque assay.
High-Five™ insect cells were pelleted in a 225 ml conical tube by centrifugation at 1000 rpm for 5 min After discarding the supernatant, the pellet was resuspended in 1.5×10^9 pfu (MOI=5) of high-titer virus solution, followed by incubation for 1.5 hours at room temperature. The cells were pelleted again and washed once in fresh Express Five™ serum free medium. The cells were pelleted again and finally, resuspended in 200 ml of fresh Express Five™ medium, transferred to a 1,000 ml shaker flask, and incubated in a shaker at 27° C., 130 rpm, for 48 hours before the culture supernatant was collected. The purification of 3-domain form of VCAM-1 from the culture supernatant was performed by one-step anion exchange chromatography. Protein concentration was determined by using Coomassie protein assay reagent (Pierce) according to the manufacture's instruction.
Preparation of Microtiter Plates:
Recombinant human VCAM-1 (extracellular domains 1-3) was dissolved at 0.5 μg/ml in PBS. […]

T1 sequence (P13612 34-1032): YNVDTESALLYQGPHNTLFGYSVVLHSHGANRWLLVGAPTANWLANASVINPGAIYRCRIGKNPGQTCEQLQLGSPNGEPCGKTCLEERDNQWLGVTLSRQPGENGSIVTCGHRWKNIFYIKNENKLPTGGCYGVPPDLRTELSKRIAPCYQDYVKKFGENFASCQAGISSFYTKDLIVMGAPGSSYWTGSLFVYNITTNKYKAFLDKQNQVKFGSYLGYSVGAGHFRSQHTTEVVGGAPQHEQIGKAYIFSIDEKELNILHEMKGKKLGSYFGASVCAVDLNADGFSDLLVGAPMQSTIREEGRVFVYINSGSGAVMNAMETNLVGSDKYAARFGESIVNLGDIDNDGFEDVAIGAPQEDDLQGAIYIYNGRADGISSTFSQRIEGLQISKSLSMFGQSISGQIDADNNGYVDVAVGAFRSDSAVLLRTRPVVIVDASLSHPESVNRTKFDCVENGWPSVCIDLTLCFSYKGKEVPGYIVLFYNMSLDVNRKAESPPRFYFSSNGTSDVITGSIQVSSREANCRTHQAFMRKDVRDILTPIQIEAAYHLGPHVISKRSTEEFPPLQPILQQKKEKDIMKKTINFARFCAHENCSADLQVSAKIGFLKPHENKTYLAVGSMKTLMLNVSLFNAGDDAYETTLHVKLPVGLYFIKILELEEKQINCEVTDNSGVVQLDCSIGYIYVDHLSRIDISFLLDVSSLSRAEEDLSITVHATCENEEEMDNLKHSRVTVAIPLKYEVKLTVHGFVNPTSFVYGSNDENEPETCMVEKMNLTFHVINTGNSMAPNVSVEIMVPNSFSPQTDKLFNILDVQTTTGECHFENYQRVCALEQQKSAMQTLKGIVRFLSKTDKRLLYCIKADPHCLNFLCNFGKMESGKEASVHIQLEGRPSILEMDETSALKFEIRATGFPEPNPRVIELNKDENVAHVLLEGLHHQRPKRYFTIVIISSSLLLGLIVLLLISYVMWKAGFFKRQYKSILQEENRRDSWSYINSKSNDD
T1 sequence (P05556 21-798): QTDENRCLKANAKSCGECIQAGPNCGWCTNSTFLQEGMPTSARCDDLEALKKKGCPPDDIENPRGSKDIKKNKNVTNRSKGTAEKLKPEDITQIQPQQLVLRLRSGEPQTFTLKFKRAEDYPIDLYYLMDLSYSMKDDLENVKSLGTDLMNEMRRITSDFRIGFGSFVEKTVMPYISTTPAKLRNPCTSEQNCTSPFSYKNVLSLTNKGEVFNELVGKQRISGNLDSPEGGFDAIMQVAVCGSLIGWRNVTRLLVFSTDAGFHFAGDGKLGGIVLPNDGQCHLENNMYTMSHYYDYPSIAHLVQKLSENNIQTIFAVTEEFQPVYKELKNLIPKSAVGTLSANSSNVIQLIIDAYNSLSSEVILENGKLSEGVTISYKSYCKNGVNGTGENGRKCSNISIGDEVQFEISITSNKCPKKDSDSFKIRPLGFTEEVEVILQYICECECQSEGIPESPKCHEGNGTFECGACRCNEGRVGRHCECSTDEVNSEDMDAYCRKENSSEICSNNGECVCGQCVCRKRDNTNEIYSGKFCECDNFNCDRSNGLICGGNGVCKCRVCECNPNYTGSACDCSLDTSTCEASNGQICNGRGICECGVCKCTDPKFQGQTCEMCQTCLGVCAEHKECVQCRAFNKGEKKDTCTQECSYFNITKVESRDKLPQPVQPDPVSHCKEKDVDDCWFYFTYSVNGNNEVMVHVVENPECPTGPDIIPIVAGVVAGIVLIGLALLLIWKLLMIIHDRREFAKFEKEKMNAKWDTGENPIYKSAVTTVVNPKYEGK

IC50 (read-out: IC50)	IC50	SMILES
500 to 2000 nM		CS(=O)(=O)N1CCCC(C(=O)N[C@@H](Cc2ccc(NC(=O)N3CCN(C(c4ccccc4)c4ccccc4)CC3)cc2)C(=O)O)C1 (some centres unmarked) [Example 4.31]
500 to 2000 nM		Cc1ccc(S(=O)(=O)N2CCCC(C(=O)N[C@@H](Cc3ccc(-c4ccccc4C)cc3)C(=O)O)C2)cc1 (some centres unmarked) [Example 1.85]
≤ 500 nM		Cc1ccc(S(=O)(=O)N2CCCC(C(=O)N[C@@H](Cc3ccc(NC(=O)N4CCOCC4)cc3)C(=O)O)C2)cc1 (some centres unmarked) [Example 4.43]
2000 to 10000 nM		O=C(N[C@@H](Cc1ccc(NC(=O)N2CCN(c3ccccc3)CC2)cc1)C(=O)O)C1CCCN(C(=O)c2ccc(OC(F)(F)F)cc2)C1 (some centres unmarked) [Example 4.8]
≤ 500 nM		O=C(N[C@@H](Cc1ccc(NC(=O)N2CCN(C(c3ccccc3)c3ccccc3)CC2)cc1)C(=O)O)C1CCCN(C(=O)Cc2cccs2)C1 (some centres unmarked) [Example 4.10]
500 to 2000 nM		COc1ccccc1C(=O)N1CCCC(C(=O)N[C@@H](Cc2ccc(-c3ccccc3C)cc2)C(=O)O)C1 (some centres unmarked) [Example 1.37]
≤ 500 nM		Cc1ccc(S(=O)(=O)N2CCCC(C(=O)N[C@@H](Cc3ccc(NC(=O)N4CCN(C)CC4)cc3)C(=O)O)C2)cc1 (some centres unmarked) [Example 4.11]
	C-D	COc1ccc(-c2ccc(C[C@H](NC(=O)C3CCCN(C(=O)Oc4c(C)cc(C)cc4C)C3)C(=O)O)cc2)cc1 (some centres unmarked) [Example 1.28]
500 to 2000 nM		CN1CCN(C(=O)Nc2ccc(C[C@H](NC(=O)C3CCCN(C(=O)NCc4ccccc4)C3)C(=O)O)cc2)CC1 (some centres unmarked) [Example 4.62]
	C-D	CCCNc1ncnc(N2CCCC(C(=O)N[C@@H](Cc3ccc(-c4ccc(OC)cc4)cc3)C(=O)O)C2)c1F (some centres unmarked) [Example 2.20]
	C-D	CC1(C)C2CCC1(CS(=O)(=O)N1CCCC(C(=O)N[C@@H](Cc3ccc(-c4ccc(Cl)cc4Cl)cc3)C(=O)O)C1)C(=O)C2 (some centres unmarked) [Example 1.93]
2000 to 10000 nM		CN1CCN(C(=O)Nc2ccc(C[C@H](NC(=O)C3CCCN(c4ncnc(NCC5CCCCC5)c4F)C3)C(=O)O)cc2)CC1 (some centres unmarked) [Example 5.33]
	C-D	Cc1ccc(-c2ccc(C[C@H](NC(=O)C3CCCN(c4ncnc(NCCN5CCCC5)c4F)C3)C(=O)O)cc2)cc1 (some centres unmarked) [Example 2.12]
500 to 2000 nM		COc1ccccc1C(=O)N1CCCC(C(=O)N[C@@H](Cc2ccc(NC(=O)NC3CCN(Cc4ccccc4)CC3)cc2)C(=O)O)C1 (some centres unmarked) [Example 4.24]
	C-D	COc1ccc(-c2ccc(C[C@H](NC(=O)C3CCCN(S(=O)(=O)c4cc(Cl)ccc4OC)C3)C(=O)O)cc2)cc1 (some centres unmarked) [Example 1.81]
	C-D	Cc1ccc(S(=O)(=O)N2CCCC(C(=O)N[C@@H](Cc3ccc(-c4ccc(Cl)cc4Cl)cc3)C(=O)O)C2)cc1 (some centres unmarked) [Example 1.94]
	C-D	Cc1ccc(-c2ccc(C[C@H](NC(=O)C3CCCN(S(=O)(=O)c4ccc(C)cc4)C3)C(=O)O)cc2)cc1 (some centres unmarked) [Example 1.66]
	C-D	O=C(N[C@@H](Cc1ccc(-c2ccccc2)cc1)C(=O)O)C1CCCN(C(=O)c2cccc(Cl)c2)C1 (some centres unmarked) [Example 1.8]
	C-D	Cc1ccc(-c2ccc(C[C@H](NC(=O)C3CCCN(S(=O)(=O)Cc4ccccc4)C3)C(=O)O)cc2)cc1 (some centres unmarked) [Example 1.73]
≤ 500 nM		CN1CCN(C(=O)Nc2ccc(C[C@H](NC(=O)C3CCCN(S(=O)(=O)c4ccc5ccccc5c4)C3)C(=O)O)cc2)CC1 (some centres unmarked) [Example 4.16]
	C-D	COc1ccc(-c2ccc(C[C@H](NC(=O)C3CCCN(C(=O)Cc4c(Cl)cc(C)cc4Cl)C3)C(=O)O)cc2)cc1 (some centres unmarked) [Example 1.25]
≤ 500 nM		O=C(N[C@@H](Cc1ccc(NC(=O)N2CCCCC2)cc1)C(=O)O)C1CCCN(S(=O)(=O)c2ccc3ccccc3c2)C1 (some centres unmarked) [Example 4.41]

IC50 (read-out: IC50)	IC50	SMILES
≤ 500 nM		Cc1ccc(S(=O)(=O)N2CCCC(C(=O)N[C@@H](Cc3ccc(-c4cc(Cl)ccc4Cl)cc3)C(=O)O)C2)cc1 (some centres unmarked) [Example 1.104]
≤ 500 nM		COc1ccccc1C(=O)N1CCCC(C(=O)N[C@@H](Cc2ccc(NC(=O)N3CCc4ccccc4C3)cc2)C(=O)O)C1 (some centres unmarked) [Example 4.27]
2000 to 10000 nM		O=C(N[C@@H](Cc1ccc(NC(=O)N2CCc3ccccc3C2)cc1)C(=O)O)C1CCCN(S(=O)(=O)c2ccc3ccccc3c2)C1 (some centres unmarked) [Example 4.39]
500 to 2000 nM		O=C(N[C@@H](Cc1ccc(NC(=O)N2CCc3ccccc3C2)cc1)C(=O)O)C1CCCN(C(=O)C2CCCCC2)C1 (some centres unmarked) [Example 4.53]
	C-D	CCCCN(C)c1ncnc(N2CCCC(C(=O)N[C@@H](Cc3ccc(-c4ccc(Cl)c(Cl)c4)cc3)C(=O)O)C2)c1F (some centres unmarked) [Example 2.50]
	C-D	COc1ccc(-c2ccc(C[C@H](NC(=O)C3CCCN(C(=O)C4CCCCC4)C3)C(=O)O)cc2)cc1 (some centres unmarked) [Example 1.24]
500 to 2000 nM		COc1ccc(S(=O)(=O)N2CCCC(C(=O)N[C@@H](Cc3ccc(NC(=O)N4CCN(C(c5ccccc5)c5ccccc5)CC4)cc3)C(=O)O)C2)cc1OC (some centres unmarked) [Example 4.45]
500 to 2000 nM		O=C(N[C@@H](Cc1ccc(NC(=O)N2CCN(c3ccccc3)CC2)cc1)C(=O)O)C1CCCN(c2ncnc(NC3CCN(Cc4ccccc4)CC3)c2F)C1 (some centres unmarked) [Example 5.23]
	C-D	O=C(N[C@@H](Cc1ccc(-c2ccccc2)cc1)C(=O)O)C1CCCN(C(=O)Cc2ccccc2)C1 (some centres unmarked) [Example 1.7]
	C-D	Cc1ccccc1-c1ccc(C[C@H](NC(=O)C2CCCN(c3ncnc(N4CCCCC4)c3F)C2)C(=O)O)cc1 (some centres unmarked) [Example 2.26]
2000 to 10000 nM		O=C(N[C@@H](Cc1ccc(-c2ccccc2)cc1)C(=O)O)C1CCCN(C(=O)OC2CCCC2)C1 (some centres unmarked) [Example 1.16]
500 to 2000 nM		CN1CCN(C(=O)Nc2ccc(C[C@H](NC(=O)C3CCCN(c4ncnc(NCc5ccccc5)c4F)C3)C(=O)O)cc2)CC1 (some centres unmarked) [Example 5.11]
	C-D	O=C(N[C@@H](Cc1ccc(-c2ccc(Cl)c(Cl)c2)cc1)C(=O)O)C1CCCN(c2ncnc(NC3Cc4ccccc4C3)c2F)C1 (some centres unmarked) [Example 2.48]
500 to 2000 nM		O=C(N[C@@H](Cc1ccc(NC(=O)N2CCOCC2)cc1)C(=O)O)C1CCCN(C(=O)c2ccc(OC(F)(F)F)cc2)C1 (some centres unmarked) [Example 4.13]
500 to 2000 nM		Cc1ccccc1-c1ccc(C[C@H](NC(=O)C2CCCN(C(=O)OC3CCCC3)C2)C(=O)O)cc1 (some centres unmarked) [Example 1.39]
	C-D	Cc1ccc(-c2ccc(C[C@H](NC(=O)C3CCCN(C(=O)Cc4c(Cl)cc(Cl)cc4Cl)C3)C(=O)O)cc2)cc1 (some centres unmarked) [Example 1.22]
2000 to 10000 nM		COCCNc1ncnc(N2CCCC(C(=O)N[C@@H](Cc3ccc(NC(=O)N4CCc5ccccc5C4)cc3)C(=O)O)C2)c1F (some centres unmarked) [Example 5.16]
	C-D	Cc1ccc(C(=O)N2CCCC(C(=O)N[C@@H](Cc3ccc(-c4cc(Cl)ccc4Cl)cc3)C(=O)O)C2)cc1 (some centres unmarked) [Example 1.51]
2000 to 10000 nM		O=C(N[C@@H](Cc1ccc(NC(=O)N2CCN(c3ccccc3)CC2)cc1)C(=O)O)C1CCCN(c2ncnc(N3CCCC3)c2F)C1 (some centres unmarked) [Example 5.10]
2000 to 10000 nM		Cc1ccccc1-c1ccc(C[C@H](NC(=O)C2CCCN(C(=O)c3cccc(Cl)c3)C2)C(=O)O)cc1 (some centres unmarked) [Example 1.31]
≤ 500 nM		O=C(N[C@@H](Cc1ccc(-c2cc(Cl)ccc2Cl)cc1)C(=O)O)C1CCCN(c2ncnc(NCc3ccccn3)c2F)C1 (some centres unmarked) [Example 2.1]
≤ 500 nM		O=C(N[C@@H](Cc1ccc(-c2cc(Cl)ccc2Cl)cc1)C(=O)O)C1CCCN(S(=O)(=O)Cc2ccccc2)C1 (some centres unmarked) [Example 1.6]
